Experimental data taken from the kinase profiling compilation of Christmann-Franck et al. (2016).

Assays:
Experiment in all cases: KINOMEscan competition binding
Conditions in all cases: compound 10.0 µM
[1] = biological target: AAK1 (human) (UniProt Q2M2I8)
[2] = biological target: ACVR2B (human) (UniProt Q13705)
[3] = biological target: BLK (human) (UniProt P51451)
[4] = biological target: BMP2K (human) (UniProt Q9NSY1)
[5] = biological target: BMPR1B (human) (UniProt O00238)
[6] = biological target: BRSK2 (human) (UniProt Q8IWQ3)
[7] = biological target: CAMK1G (human) (UniProt Q96NX5)
[8] = biological target: CDC42BPG (human) (UniProt Q6DT37)
[9] = biological target: CDK16 (human) (UniProt Q00536)
[10] = biological target: CDK2 (human) (UniProt P24941)
[11] = biological target: CDK7 (human) (UniProt P50613)
[12] = biological target: CIT (human) (UniProt O14578)
Sequence of CIT (human) (O14578 whole entry, looked up): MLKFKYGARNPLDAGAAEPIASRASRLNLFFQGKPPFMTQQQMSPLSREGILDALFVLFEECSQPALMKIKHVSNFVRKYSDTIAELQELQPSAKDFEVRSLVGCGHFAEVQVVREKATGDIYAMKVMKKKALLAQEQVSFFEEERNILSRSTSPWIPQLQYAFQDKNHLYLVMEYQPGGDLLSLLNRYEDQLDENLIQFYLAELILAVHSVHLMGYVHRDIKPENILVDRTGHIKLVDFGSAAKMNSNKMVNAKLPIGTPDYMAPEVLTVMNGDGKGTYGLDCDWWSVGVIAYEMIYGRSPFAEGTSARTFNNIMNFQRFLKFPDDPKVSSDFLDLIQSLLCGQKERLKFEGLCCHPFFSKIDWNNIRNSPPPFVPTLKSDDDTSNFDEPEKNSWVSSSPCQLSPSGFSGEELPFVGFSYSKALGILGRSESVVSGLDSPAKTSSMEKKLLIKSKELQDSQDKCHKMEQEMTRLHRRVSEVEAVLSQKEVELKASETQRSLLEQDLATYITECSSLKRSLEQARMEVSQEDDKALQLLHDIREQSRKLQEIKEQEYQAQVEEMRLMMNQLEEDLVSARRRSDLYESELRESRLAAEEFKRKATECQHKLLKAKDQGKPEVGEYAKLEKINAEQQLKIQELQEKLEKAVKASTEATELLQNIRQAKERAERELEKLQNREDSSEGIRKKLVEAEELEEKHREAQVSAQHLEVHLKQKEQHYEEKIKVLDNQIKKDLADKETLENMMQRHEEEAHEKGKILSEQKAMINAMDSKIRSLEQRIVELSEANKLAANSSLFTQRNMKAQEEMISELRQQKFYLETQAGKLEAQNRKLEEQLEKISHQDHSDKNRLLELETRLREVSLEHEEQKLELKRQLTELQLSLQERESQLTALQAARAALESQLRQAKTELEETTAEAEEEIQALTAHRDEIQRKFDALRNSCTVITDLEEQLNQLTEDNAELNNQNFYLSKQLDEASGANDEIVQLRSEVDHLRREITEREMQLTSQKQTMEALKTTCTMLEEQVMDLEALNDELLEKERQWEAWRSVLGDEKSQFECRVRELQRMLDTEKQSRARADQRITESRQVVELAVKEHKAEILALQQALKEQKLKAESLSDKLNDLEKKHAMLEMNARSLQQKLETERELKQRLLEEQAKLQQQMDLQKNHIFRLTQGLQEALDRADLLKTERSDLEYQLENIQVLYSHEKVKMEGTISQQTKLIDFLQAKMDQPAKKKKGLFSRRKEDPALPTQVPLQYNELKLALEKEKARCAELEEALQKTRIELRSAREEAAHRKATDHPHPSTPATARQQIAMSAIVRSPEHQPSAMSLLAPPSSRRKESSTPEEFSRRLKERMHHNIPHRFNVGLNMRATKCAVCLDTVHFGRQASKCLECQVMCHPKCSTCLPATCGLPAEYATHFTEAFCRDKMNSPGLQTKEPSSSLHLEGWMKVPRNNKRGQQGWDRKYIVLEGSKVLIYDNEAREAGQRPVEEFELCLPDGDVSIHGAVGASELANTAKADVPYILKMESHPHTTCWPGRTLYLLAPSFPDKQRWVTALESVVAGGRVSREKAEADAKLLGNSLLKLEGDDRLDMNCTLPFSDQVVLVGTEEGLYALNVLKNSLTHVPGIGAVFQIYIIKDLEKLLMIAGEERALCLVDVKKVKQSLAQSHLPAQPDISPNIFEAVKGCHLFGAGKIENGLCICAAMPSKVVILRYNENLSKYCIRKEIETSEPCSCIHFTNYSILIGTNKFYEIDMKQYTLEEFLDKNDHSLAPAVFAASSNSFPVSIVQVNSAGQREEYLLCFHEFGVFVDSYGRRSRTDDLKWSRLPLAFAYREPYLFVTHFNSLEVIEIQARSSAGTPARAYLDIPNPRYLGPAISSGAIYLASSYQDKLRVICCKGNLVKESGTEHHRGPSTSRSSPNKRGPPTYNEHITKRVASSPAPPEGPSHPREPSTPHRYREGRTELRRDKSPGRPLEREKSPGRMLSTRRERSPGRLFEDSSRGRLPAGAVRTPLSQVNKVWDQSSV

[13] = biological target: CLK4 (human) (UniProt Q9HAZ1)
[14] = biological target: DCLK3 (human) (UniProt Q9C098)
[15] = biological target: FGFR3 (human) (UniProt P22607)
[16] = biological target: FRK (human) (UniProt P42685)
[17] = biological target: ITK (human) (UniProt Q08881)
[18] = biological target: LATS2 (human) (UniProt Q9NRM7)
[19] = biological target: LCK (human) (UniProt P06239)
[20] = biological target: MAP4K3 (human) (UniProt Q8IVH8)
[21] = biological target: MAPK3 (human) (UniProt P27361)
[22] = biological target: MAPK8 (human) (UniProt P45983)
[23] = biological target: MAPKAPK2 (human) (UniProt P49137)
Sequence of MAPKAPK2 (human) (P49137 whole entry, looked up): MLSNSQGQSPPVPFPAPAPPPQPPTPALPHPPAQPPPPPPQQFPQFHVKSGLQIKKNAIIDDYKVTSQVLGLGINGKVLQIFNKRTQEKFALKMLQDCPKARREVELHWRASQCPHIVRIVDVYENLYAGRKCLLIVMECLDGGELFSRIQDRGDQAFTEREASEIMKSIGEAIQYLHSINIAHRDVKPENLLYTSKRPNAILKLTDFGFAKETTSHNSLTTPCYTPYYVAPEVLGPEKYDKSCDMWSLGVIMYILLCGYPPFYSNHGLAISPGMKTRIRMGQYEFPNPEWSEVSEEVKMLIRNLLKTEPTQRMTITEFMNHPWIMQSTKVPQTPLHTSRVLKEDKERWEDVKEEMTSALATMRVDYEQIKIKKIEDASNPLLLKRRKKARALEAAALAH

[24] = biological target: MINK1 (human) (UniProt Q8N4C8)
[25] = biological target: MLTK (human) (UniProt Q9NYL2)
[26] = biological target: MUSK (human) (UniProt O15146)
[27] = biological target: PRKAA1 (human) (UniProt Q13131)
[28] = biological target: PRKCD (human) (UniProt Q05655)
[29] = biological target: PRKCE (human) (UniProt Q02156)
[30] = biological target: PRKD1 (human) (UniProt Q15139)
[31] = biological target: PRKD3 (human) (UniProt O94806)
Sequence of PRKD3 (human) (O94806 whole entry, looked up): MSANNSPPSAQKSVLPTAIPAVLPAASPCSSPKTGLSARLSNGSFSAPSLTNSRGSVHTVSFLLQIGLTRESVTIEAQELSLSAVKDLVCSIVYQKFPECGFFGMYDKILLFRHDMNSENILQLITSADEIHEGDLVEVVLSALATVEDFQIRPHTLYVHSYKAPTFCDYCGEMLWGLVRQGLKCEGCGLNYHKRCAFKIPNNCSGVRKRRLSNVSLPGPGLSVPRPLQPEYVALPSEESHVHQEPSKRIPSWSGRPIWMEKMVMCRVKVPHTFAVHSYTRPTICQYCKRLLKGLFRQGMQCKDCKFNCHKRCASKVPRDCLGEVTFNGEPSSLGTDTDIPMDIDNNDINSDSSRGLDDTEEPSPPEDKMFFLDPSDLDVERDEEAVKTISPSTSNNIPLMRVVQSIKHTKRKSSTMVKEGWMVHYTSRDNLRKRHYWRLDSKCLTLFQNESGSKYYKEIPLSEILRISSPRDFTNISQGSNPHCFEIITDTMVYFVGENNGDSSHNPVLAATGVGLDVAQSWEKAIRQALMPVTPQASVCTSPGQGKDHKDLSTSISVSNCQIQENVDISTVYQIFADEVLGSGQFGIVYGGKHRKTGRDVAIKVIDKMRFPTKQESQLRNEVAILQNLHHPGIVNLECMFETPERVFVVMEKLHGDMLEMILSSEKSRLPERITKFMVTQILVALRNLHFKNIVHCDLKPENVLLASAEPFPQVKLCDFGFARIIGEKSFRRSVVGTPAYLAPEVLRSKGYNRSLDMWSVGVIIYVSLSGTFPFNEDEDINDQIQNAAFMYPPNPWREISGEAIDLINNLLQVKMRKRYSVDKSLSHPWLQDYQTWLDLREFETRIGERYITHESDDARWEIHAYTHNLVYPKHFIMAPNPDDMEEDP

[32] = biological target: PRKX (human) (UniProt P51817)
[33] = biological target: RPS6KA1 KD2 (human) (UniProt Q15418)
[34] = biological target: RPS6KA4 KD2 (human) (UniProt O75676)
[35] = biological target: RPS6KA5 KD2 (human) (UniProt O75582)
Sequence of RPS6KA5 KD2 (human) (O75582 whole entry, looked up): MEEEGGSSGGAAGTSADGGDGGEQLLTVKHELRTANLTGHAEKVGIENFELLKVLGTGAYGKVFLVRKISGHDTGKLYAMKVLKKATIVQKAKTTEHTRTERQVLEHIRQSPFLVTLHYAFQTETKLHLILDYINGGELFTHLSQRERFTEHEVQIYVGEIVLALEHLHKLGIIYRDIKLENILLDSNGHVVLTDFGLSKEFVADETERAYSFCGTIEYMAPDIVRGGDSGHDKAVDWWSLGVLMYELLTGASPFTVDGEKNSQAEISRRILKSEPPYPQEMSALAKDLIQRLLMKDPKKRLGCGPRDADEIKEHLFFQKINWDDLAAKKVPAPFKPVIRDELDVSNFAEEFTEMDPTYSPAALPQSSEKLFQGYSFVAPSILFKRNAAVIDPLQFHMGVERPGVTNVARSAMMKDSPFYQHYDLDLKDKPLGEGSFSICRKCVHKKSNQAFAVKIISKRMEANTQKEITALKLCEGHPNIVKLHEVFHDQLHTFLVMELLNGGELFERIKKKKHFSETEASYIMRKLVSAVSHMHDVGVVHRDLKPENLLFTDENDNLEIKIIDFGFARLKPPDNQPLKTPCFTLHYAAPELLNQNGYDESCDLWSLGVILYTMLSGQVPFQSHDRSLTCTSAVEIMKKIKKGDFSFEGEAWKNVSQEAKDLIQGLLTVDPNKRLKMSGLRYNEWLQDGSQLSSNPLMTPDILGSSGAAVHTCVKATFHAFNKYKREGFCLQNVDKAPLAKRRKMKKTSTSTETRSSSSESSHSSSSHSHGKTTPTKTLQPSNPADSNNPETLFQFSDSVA

[36] = biological target: SRPK2 (human) (UniProt P78362)
[37] = biological target: STK24 (human) (UniProt Q9Y6E0)
Sequence of STK24 (human) (Q9Y6E0 whole entry, looked up): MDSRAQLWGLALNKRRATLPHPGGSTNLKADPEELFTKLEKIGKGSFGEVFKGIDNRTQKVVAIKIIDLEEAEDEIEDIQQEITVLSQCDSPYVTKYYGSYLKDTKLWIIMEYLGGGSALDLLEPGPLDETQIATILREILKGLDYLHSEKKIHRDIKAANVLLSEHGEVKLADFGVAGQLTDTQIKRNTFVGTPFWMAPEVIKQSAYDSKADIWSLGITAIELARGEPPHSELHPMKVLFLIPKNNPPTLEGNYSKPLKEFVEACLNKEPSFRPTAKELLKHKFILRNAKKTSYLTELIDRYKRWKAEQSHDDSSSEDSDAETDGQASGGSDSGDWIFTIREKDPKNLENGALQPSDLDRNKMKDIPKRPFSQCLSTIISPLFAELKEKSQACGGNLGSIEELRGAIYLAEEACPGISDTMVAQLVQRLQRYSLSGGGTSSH

[38] = biological target: STK33 (human) (UniProt Q9BYT3)
[39] = biological target: TIE1 (human) (UniProt P35590)
[40] = biological target: TNK2 (human) (UniProt Q07912)
[41] = biological target: TYRO3 (human) (UniProt Q06418)
[42] = biological target: WEE2 (human) (UniProt P0C1S8)

Sequence of BLK (human) (P51451 whole entry, looked up): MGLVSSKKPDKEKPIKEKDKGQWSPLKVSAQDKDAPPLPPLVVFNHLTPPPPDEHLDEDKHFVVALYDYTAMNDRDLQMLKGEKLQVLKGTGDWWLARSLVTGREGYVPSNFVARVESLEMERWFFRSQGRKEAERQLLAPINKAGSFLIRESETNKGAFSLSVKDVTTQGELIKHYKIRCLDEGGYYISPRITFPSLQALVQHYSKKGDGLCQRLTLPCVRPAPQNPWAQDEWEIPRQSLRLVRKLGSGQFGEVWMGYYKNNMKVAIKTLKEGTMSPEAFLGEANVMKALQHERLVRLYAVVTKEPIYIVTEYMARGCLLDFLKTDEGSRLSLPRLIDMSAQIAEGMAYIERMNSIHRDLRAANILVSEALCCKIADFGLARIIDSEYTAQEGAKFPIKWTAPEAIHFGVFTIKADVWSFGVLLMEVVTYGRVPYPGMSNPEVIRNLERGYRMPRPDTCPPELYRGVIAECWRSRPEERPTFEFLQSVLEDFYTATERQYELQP

Question: With `COc1cc(N2CCN(C)CC2)ccc1Nc1ncc2c(n1)N(C)c1ccccc1N(C)C2=O` as the molecule, how does the kinase still bound, per cent of control [1] read?
Answer: 88%

Question: What about the kinase still bound, per cent of control [2] of the same molecule?
Answer: 92%

Question: And the kinase still bound, per cent of control [3]?
Answer: 93%

Question: And the kinase still bound, per cent of control [4]?
Answer: 100%

Question: And the kinase still bound, per cent of control [5]?
Answer: 100%

Question: And the kinase still bound, per cent of control [6]?
Answer: 85%

Question: And the kinase still bound, per cent of control [7]?
Answer: 100%

Question: And the kinase still bound, per cent of control [8]?
Answer: 100%

Question: What about the kinase still bound, per cent of control [9] of the same molecule?
Answer: 93%

Question: And the kinase still bound, per cent of control [10]?
Answer: 75%

Question: What about the kinase still bound, per cent of control [11] of the same molecule?
Answer: 100%

Question: What about the kinase still bound, per cent of control [12] of the same molecule?
Answer: 95%

Question: What about the kinase still bound, per cent of control [13] of the same molecule?
Answer: 99%

Question: And the kinase still bound, per cent of control [14]?
Answer: 100%

Question: And the kinase still bound, per cent of control [15]?
Answer: 100%

Question: What about the kinase still bound, per cent of control [16] of the same molecule?
Answer: 51%

Question: What about the kinase still bound, per cent of control [17] of the same molecule?
Answer: 98%

Question: And the kinase still bound, per cent of control [18]?
Answer: 75%

Question: And the kinase still bound, per cent of control [19]?
Answer: 100%

Question: What about the kinase still bound, per cent of control [20] of the same molecule?
Answer: 100%

Question: What about the kinase still bound, per cent of control [21] of the same molecule?
Answer: 100%

Question: And the kinase still bound, per cent of control [22]?
Answer: 86%

Question: What about the kinase still bound, per cent of control [23] of the same molecule?
Answer: 95%

Question: What about the kinase still bound, per cent of control [24] of the same molecule?
Answer: 100%

Question: And the kinase still bound, per cent of control [25]?
Answer: 100%

Question: And the kinase still bound, per cent of control [26]?
Answer: 100%

Question: And the kinase still bound, per cent of control [27]?
Answer: 92%

Question: What about the kinase still bound, per cent of control [28] of the same molecule?
Answer: 100%

Question: What about the kinase still bound, per cent of control [29] of the same molecule?
Answer: 60%

Question: And the kinase still bound, per cent of control [30]?
Answer: 87%

Question: What about the kinase still bound, per cent of control [31] of the same molecule?
Answer: 85%

Question: What about the kinase still bound, per cent of control [32] of the same molecule?
Answer: 83%

Question: What about the kinase still bound, per cent of control [33] of the same molecule?
Answer: 56%

Question: What about the kinase still bound, per cent of control [34] of the same molecule?
Answer: 88%

Question: And the kinase still bound, per cent of control [35]?
Answer: 93%

Question: What about the kinase still bound, per cent of control [36] of the same molecule?
Answer: 100%

Question: And the kinase still bound, per cent of control [37]?
Answer: 100%

Question: And the kinase still bound, per cent of control [38]?
Answer: 58%

Question: What about the kinase still bound, per cent of control [39] of the same molecule?
Answer: 70%

Question: And the kinase still bound, per cent of control [40]?
Answer: 20%

Question: And the kinase still bound, per cent of control [41]?
Answer: 100%

Question: And the kinase still bound, per cent of control [42]?
Answer: 100%
